# Measurements as given in PMC11189555, “Aryl amino acetamides prevent Plasmodium falciparum ring development via targeting the lipid-transfer protein PfSTART1” (Nature Communications, 2024).
# Values joined by “and” are separate entries in the source; they are usually repeats but may differ in a detail not shown here. Identical values can stand only once.
# System: 3D7 P. falciparum parasites
# Assay: Growth inhibition assay (72 h, LDH activity)
# Type: cell-based, Plasmodium falciparum
# Conditions: for (av-uRBC) / (DMSO-uRBC) x100: 3D7
# Protocol: Parasite growth assays with inhibitory compounds were performed as per[11] and are fully described in the Supplementary Information. […]
# Growth inhibition assays. Synchronised ring-stage parasites (0.3-0.6% parasitemia, 2% haematocrit) were grown for 72 h in a serial-dilution of the compound under […]
# and compound 4. Note that M-833 was first purchased from MolPort (MolPort -002-267-916) then made in-house at WEHI: the differences observed in EC50s across experiments are attributed to the different batches of M -833. For some experiments, 0, 0.25 or 2.5 mM of glucosamine (GlcN) was also added. Experiments were set up in technical duplicates or triplicates. Following a freeze -thaw cycle, lactate dehydrogenase (LDH) activity was assessed as an indicator of parasite growt h 5. 30 μL of parasite culture was incubated for 30 min in the dark with 75 μL Malstat mixture (0.1 M Tris pH 9.0, 20 g/L lactic acid, pH 7.5, 0.2% Triton-X100, 0.5 g/L acetylpyridine adenine dinucleotide (APAD, Sigma), 200 μg/mL nitroblue tetrazolium (NBT; Sigma), 1 μg/mL phenozine ethosulfate (PES; Sigma)). Absorbance was then measured at 650 nm, transformed using the formula below, plotted against the logarithm of the concentrations, and a non-linear regression (log(inhibitor) vs. response, variable slope) was calculated using GraphPad Prism to assess the half-inhibitory […]
# Growth inhibition % = (1 − average(sample)− average(uRBC)) ∗ 100 […]
# The DMSO samples were also used to assess growth of parasite in the presence of 0.25 and 2.5 mM GlcN (normalised by DMSO in 0 mM GlcN). […]
smiles,measurement,setting,value
Cc1cc(Cl)c(S(=O)(=O)N2CCCC2)cc1OCC(=O)NC1CCCCC1 [M-833],"sample/DMSO (growth inhibition vs DMSO, LDH)","3D7, 0 mM GlcN, M-833 0.000508053 uM, biological replicates 1-3",0.3955
same,"sample/DMSO (growth inhibition vs DMSO, LDH)","3D7, 0 mM GlcN, M-833 0.00152416 uM, biological replicates 1-4",3.899 and 0.6135 and 1.269 and -5.021
same,"sample/DMSO (growth inhibition vs DMSO, LDH)","3D7, 0 mM GlcN, M-833 0.00457247 uM, biological replicates 1-4",7.9783 and -0.1897 and 1.9685 and -5.962
same,"sample/DMSO (growth inhibition vs DMSO, LDH)","3D7, 0 mM GlcN, M-833 0.0137174 uM, biological replicates 1-4",6.577 and 0.4933 and 7.305 and 4.539
same,"sample/DMSO (growth inhibition vs DMSO, LDH)","3D7, 0 mM GlcN, M-833 0.0411523 uM, biological replicates 1-4",17.0189 and 4.351 and 25.6124 and 2.634
same,"sample/DMSO (growth inhibition vs DMSO, LDH)","3D7, 0 mM GlcN, M-833 0.123457 uM, biological replicates 1-4",41.0894 and 22.2426 and 56.6492 and 25.1037
same,"sample/DMSO (growth inhibition vs DMSO, LDH)","3D7, 0 mM GlcN, M-833 0.37037 uM, biological replicates 1-4",84.744 and 69.3587 and 86.7673 and 75.1317
same,"sample/DMSO (growth inhibition vs DMSO, LDH)","3D7, 0 mM GlcN, M-833 1.11111 uM, biological replicates 1-4",95.6718 and 89.236 and 91.7104 and 88.7258
same,"sample/DMSO (growth inhibition vs DMSO, LDH)","3D7, 0 mM GlcN, M-833 3.33333 uM, biological replicates 1-4",96.655 and 91.1143 and 93.0446 and 90.6646
same,"Growth inhibition assay, NORMALISED","3D7, 0 mM GlcN, conc 13.7174 nM",13.0746
same,"Growth inhibition assay, NORMALISED","3D7, 0 mM GlcN, conc 41.1523 nM",31.4939
same,"Growth inhibition assay, NORMALISED","3D7, 0 mM GlcN, conc 123.457 nM",59.8439
same,"Growth inhibition assay, NORMALISED","3D7, 0 mM GlcN, conc 370.37 nM",84.7029
same,"Growth inhibition assay, NORMALISED","3D7, 0 mM GlcN, conc 1111.11 nM",90.8825
same,"Growth inhibition assay, NORMALISED","3D7, 0 mM GlcN, conc 3333.33 nM",92.758
same,"Growth inhibition assay, NORMALISED","3D7, 0 mM GlcN, conc 10000 nM",93.376
same,"sample/DMSO (growth inhibition vs DMSO, LDH)","3D7, 0.25 mM GlcN, M-833 0.000508053 uM, biological replicates 1-3",3.472 and 0.2055
same,"sample/DMSO (growth inhibition vs DMSO, LDH)","3D7, 0.25 mM GlcN, M-833 0.00152416 uM, biological replicates 1-4",7.594 and 1.781 and -0.4107 and -3.683
same,"sample/DMSO (growth inhibition vs DMSO, LDH)","3D7, 0.25 mM GlcN, M-833 0.00457247 uM, biological replicates 1-4",11.6683 and 13.0152 and -3.5254 and -4.48
same,"sample/DMSO (growth inhibition vs DMSO, LDH)","3D7, 0.25 mM GlcN, M-833 0.0137174 uM, biological replicates 1-4",18.8525 and 10.2866 and 0.5749 and 7.343
same,"sample/DMSO (growth inhibition vs DMSO, LDH)","3D7, 0.25 mM GlcN, M-833 0.0411523 uM, biological replicates 1-4",37.8978 and 20.6188 and 3.974 and 3.155
same,"sample/DMSO (growth inhibition vs DMSO, LDH)","3D7, 0.25 mM GlcN, M-833 0.123457 uM, biological replicates 1-4",60.1495 and 44.3886 and 19.2191 and 24.7586
same,"sample/DMSO (growth inhibition vs DMSO, LDH)","3D7, 0.25 mM GlcN, M-833 0.37037 uM, biological replicates 1-4",90.2604 and 84.0393 and 70.7607 and 72.7038
same,"sample/DMSO (growth inhibition vs DMSO, LDH)","3D7, 0.25 mM GlcN, M-833 1.11111 uM, biological replicates 1-4",94.6962 and 95.3762 and 89.746 and 88.7379
same,"sample/DMSO (growth inhibition vs DMSO, LDH)","3D7, 0.25 mM GlcN, M-833 3.33333 uM, biological replicates 1-4",94.1176 and 95.9927 and 91.6288 and 90.366
same,"Growth inhibition assay, NORMALISED","3D7, 0.25 mM GlcN, conc 123.457 nM",65.6199 and 63.1151
same,"Growth inhibition assay, NORMALISED","3D7, 0.25 mM GlcN, conc 370.37 nM",87.6963 and 91.9897
same,"Growth inhibition assay, NORMALISED","3D7, 0.25 mM GlcN, conc 1111.11 nM",93.5707 and 96.2430
same,"Growth inhibition assay, NORMALISED","3D7, 0.25 mM GlcN, conc 3333.33 nM",94.9648 and 97.4583
same,"Growth inhibition assay, NORMALISED","3D7, 0.25 mM GlcN, conc 10000 nM",98.3055 and 95.804
same,"NORMALISED (growth inhibition, LDH absorbance vs DMSO and uRBC)","3D7, 2.5 mM GlcN, M833 dilution point 1 of 10 (starting concentration 10 uM)",96.8148 and 98.7231 and 95.2456
same,"NORMALISED (growth inhibition, LDH absorbance vs DMSO and uRBC)","3D7, 2.5 mM GlcN, M833 dilution point 2 of 10 from 10 uM start",95.7251 and 93.6187 and 97.3100
same,"NORMALISED (growth inhibition, LDH absorbance vs DMSO and uRBC)","3D7, 2.5 mM GlcN, M833 dilution point 3 of 10 from 10 uM start",96.9824 and 90.9335 and 96.6034
same,"NORMALISED (growth inhibition, LDH absorbance vs DMSO and uRBC)","3D7, 2.5 mM GlcN, M833 dilution point 4 of 10 from 10 uM start",93.881 and 84.8839 and 92.4066
same,"NORMALISED (growth inhibition, LDH absorbance vs DMSO and uRBC)","3D7, 2.5 mM GlcN, M833 dilution point 5 of 10 from 10 uM start",83.487 and 63.7656 and 70.6904
same,"sample/DMSO (growth inhibition vs DMSO, LDH)","3D7, 2.5 mM GlcN, M-833 0.000508053 uM, biological replicates 1-3",-0.6607
same,"sample/DMSO (growth inhibition vs DMSO, LDH)","3D7, 2.5 mM GlcN, M-833 0.00152416 uM, biological replicates 1-4",-1.11 and -0.7648 and -1.644 and -5.451
same,"sample/DMSO (growth inhibition vs DMSO, LDH)","3D7, 2.5 mM GlcN, M-833 0.00457247 uM, biological replicates 1-4",2.378 and 5.032 and -5.671 and -4.085
same,"sample/DMSO (growth inhibition vs DMSO, LDH)","3D7, 2.5 mM GlcN, M-833 0.0137174 uM, biological replicates 1-4",17.2304 and 4.206 and -1.672 and 24.2341
same,"sample/DMSO (growth inhibition vs DMSO, LDH)","3D7, 2.5 mM GlcN, M-833 0.0411523 uM, biological replicates 1-4",38.9006 and 17.4059 and 1.86 and 27.5421
same,"sample/DMSO (growth inhibition vs DMSO, LDH)","3D7, 2.5 mM GlcN, M-833 0.123457 uM, biological replicates 1-4",56.4218 and 44.1266 and 25.1289 and 54.0055
same,"sample/DMSO (growth inhibition vs DMSO, LDH)","3D7, 2.5 mM GlcN, M-833 0.37037 uM, biological replicates 1-4",86.8658 and 83.833 and 67.9393 and 76.787
same,"sample/DMSO (growth inhibition vs DMSO, LDH)","3D7, 2.5 mM GlcN, M-833 1.11111 uM, biological replicates 1-4",92.389 and 94.7232 and 88.5258 and 88.1778
same,"sample/DMSO (growth inhibition vs DMSO, LDH)","3D7, 2.5 mM GlcN, M-833 3.33333 uM, biological replicates 1-4",94.0803 and 95.4726 and 90.5741 and 88.9113
same,Growth (Abs) Normalised to DMSO,"3D7, M-833 0.0390625 uM",98.5985
same,Growth (Abs) Normalised to DMSO,"3D7, M-833 0.078125 uM",87.6094
same,Growth (Abs) Normalised to DMSO,"3D7, M-833 0.15625 uM",73.0137
same,Growth (Abs) Normalised to DMSO,"3D7, M-833 0.3125 uM",46.3221
same,Growth (Abs) Normalised to DMSO,"3D7, M-833 0.625 uM",13.1941
same,Growth (Abs) Normalised to DMSO,"3D7, M-833 1.25 uM",5.1955
same,Growth (Abs) Normalised to DMSO,"3D7, M-833 2.5 uM",3.473
same,Growth (Abs) Normalised to DMSO,"3D7, M-833 5 uM",2.75
same,Growth (Abs) Normalised to DMSO,"3D7, M-833 10 uM",1.893
same,(av-uRBC) / (DMSO-uRBC) x100,"conc. 3.04832 nM, Biological replicate 1 (2021-10-25)",99.6118
same,(av-uRBC) / (DMSO-uRBC) x100,"conc. 3.04832 nM, Biological replicate 2 (2021-11-03)",102.365
same,(av-uRBC) / (DMSO-uRBC) x100,"conc. 9.14495 nM, Biological replicate 1 (2021-10-25)",98.5673
same,(av-uRBC) / (DMSO-uRBC) x100,"conc. 9.14495 nM, Biological replicate 2 (2021-11-03)",104.012
same,(av-uRBC) / (DMSO-uRBC) x100,"conc. 27.4348 nM, Biological replicate 1 (2021-10-25)",97.1981
same,(av-uRBC) / (DMSO-uRBC) x100,"conc. 27.4348 nM, Biological replicate 2 (2021-11-03)",104.176
same,(av-uRBC) / (DMSO-uRBC) x100,"conc. 82.3045 nM, Biological replicate 1 (2021-10-25)",86.0541
